Experiment [1] relates to A549. Kind of experiment: cells. The settings on record: Homo sapiens, A549, 72 h.
Experiment [2] has as its system MCF7. The experiment is described as follows: Antiproliferative activity against human MCF7 cells after 72 hrs by MTS assay. The settings on record: MCF7, 72 h. In general terms: Tetrazolium dyes change colour on reduction, which living cells bring about.
Experiment [3] has as its system HCT-116. Kind of experiment: cells. The conditions noted are these: Homo sapiens, HCT-116, 72 h.
The target in experiment [4] is T1, Casein kinase II subunit alpha' (Homo sapiens, UniProt P19784). Kind of experiment: Inhibition of GST fused human CK2alpha' expressed in Escherichia coli BL21 at 0.3 uM.
Experiment [5] has as its target Cyclin-dependent kinase 6 (Homo sapiens) (UniProt Q00534). The experiment is described as follows: Inhibition of CDK6 at 3 uM.
Experiment [6] addresses Receptor-type tyrosine-protein kinase FLT3 (Homo sapiens) (UniProt P36888). Kind of experiment: Inhibition of FLT3 at 0.3 uM.
The target of experiment [7] is Dual specificity tyrosine-phosphorylation-regulated kinase 1B (Homo sapiens) (UniProt Q9Y463). Kind of experiment: Inhibition of DYRK1B at 0.3 uM.
The target of experiment [8] is RAC-alpha serine/threonine-protein kinase (Homo sapiens) (UniProt P31749). The experiment is described as follows: Inhibition of AKT1 at 3 uM.
In experiment [9] the target is T2, Casein kinase II subunit alpha (Homo sapiens, UniProt P68400). The experiment is described as follows: Inhibition of GST fused human CK2alpha expressed in Escherichia coli BL21 at 0.3 uM.
For experiment [10], the target named is T2, Casein kinase II subunit alpha. Kind of experiment: Competitive inhibition of GST fused human CK2alpha expressed in Escherichia coli BL21 after 10 mins in presence of ATP.
The target in experiment [11] is T1, Casein kinase II subunit alpha'. Kind of experiment: Competitive inhibition of GST fused human CK2alpha' expressed in Escherichia coli BL21 after 10 mins in presence of ATP.

Where only a bound is given, the exact number is not on record here.

The values below come from ChEMBL document CHEMBL2086313, “Structure-based design of novel potent protein kinase CK2 (CK2) inhibitors with phenyl-azole scaffolds” (J Med Chem, 2012).

What is called IC50 is the concentration that gives 50% inhibition. The term inhibition denotes the share of the control response that was lost under treatment. High values mean a response far below the control, low ones a response near the control.

For `COc1ccc(C(=O)Nc2nnc(-c3ccc(C(=O)O)cc3)s2)cc1`, the half-maximal inhibitory concentration (IC50) in experiment [1], in experiment [2] and in [3] was above 30 µM throughout.

With `COc1ccc(C(=O)Nc2ncc(-c3ccc(C(=O)O)cc3)s2)cc1`, the inhibition was above 100% in experiment [4]; 32% in experiment [5]; 76% in experiment [6]; 82% in experiment [7]; 0.8% in [8]; 84% in [9]. Moreover, the IC50 in experiment [1] is 2.6 µM; in experiment [2], 2.4 µM; in experiment [10], 0.032 µM; in experiment [3], 1.6 µM; in experiment [11], 0.046 µM.

On to `O=C(O)c1ccc2c(c1)nc(Nc1cccc(Cl)c1)c1ccncc12` [SILMITASERTIB], for which the IC50 in experiment [1] turned out to be 8.2 µM; in [2], 6.5 µM; in experiment [3] it was 5.2 µM.

On to `COc1ccc(C(=O)Nc2cc(-c3ccc(C(=O)O)cc3)[nH]n2)cc1`, for which the IC50 in [1], in experiment [2] and in [3] was above 30 µM each time.

For `O=C(O)Cc1ccn(-c2cncc(-n3ncc4ccc(NC5CCCC5)cc43)n2)c1`, the 50% inhibitory concentration (IC50) in experiment [1] amounted to 36 µM; in experiment [2], 75 µM; in experiment [3] it was 24 µM.
